Test system: HBV rcDNA in HepDE19 cells
Test: HepDE19 assay with bDNA quantitation of HBV rcDNA
Assay type: cell-based, hepatitis B virus
Conditions: HepDE19 cells, 7 day incubation, rcDNA measured by Quantigene 2.0 bDNA assay; top concentration 25 µM; read-out: DE-19bDNA EC50
Method: HepDE19 Assay With bDNA Quantitation of HBV rcDNA
HepDE19 (50,000 cells/well) were plated in 96-well collagen-coated tissue-culture treated microtiter plates in DMEM/F12 medium supplemented with 10% fetal bovine serum, 1% penicillin-streptomycin and 1 µg/mL tetracycline and incubated in a humidified incubator at 37° C. and 5% CO2 overnight. Next day, the cells were switched to fresh medium without tetracycline and incubated for 4 hours at 37° C. and 5% CO2. […] The final DMSO concentration in the assay was 0.5%. The plates were incubated for 7 days in a humidified incubator at 37° C. and 5% CO2. Following a 7 day-incubation, the level of rcDNA present in the inhibitor-treated wells was measured using a Quantigene 2.0 bDNA assay kit (Affymetrix, Santa Clara, CA) with HBV specific custom probe set and manufacturers instructions. Concurrently, the effect of compounds on cell viability was assessed using replicate plates, plated at a density of 5,000 cells/well and incubated for 4 days, to determine the ATP content as a measure of cell viability using the cell-titer glo reagent (CTG; Promega Corporation, Madison, WI) as per manufacturer’s instructions.
Representative compounds of the disclosure were tested for their abilities to inhibit formation of relaxed circular DNA (rcDNA) in a HepDE19 assay, as described elsewhere herein.

Going from `CC(c1n[nH]c(=O)c2cc(F)c(F)cc12)N(C)C(=O)c1cc2sccc2[nH]1` (single isomer, unassigned) [Compound 81, N-(1-(6,7-difluoro-4-oxo-3,4-dihydrophthalazin-1-yl)ethyl)-N-methyl-4H-thieno[3,2-b]pyrrole-5-carboxamide] to `CC(c1n[nH]c(=O)c2cc(F)c(F)cc12)N(C)C(=O)c1ccc2ncsc2c1` (single isomer, unassigned) [Compound 86, N-(1-(6,7-difluoro-4-oxo-3,4-dihydrophthalazin-l-yl)ethyl)-N-methylbenzo[d]thiazole-6-carboxamide], the EC50 rises from 110 nM to at least 25000 nM. The first is the more potent here.

Compared with `CC(c1n[nH]c(=O)c2cc(F)c(F)cc12)N(C)C(=O)c1ccc2ccn(C)c2c1` (single isomer, unassigned) [Compound 105, N-(1-(6,7-difluoro-4-oxo-3,4-dihydrophthalazin-1-yl)ethyl)-N,1-dimethyl-1H-indole-6-carboxamide], `CC(c1n[nH]c(=O)c2cc(F)c(F)cc12)N(C)C(=O)c1ccc2cn[nH]c2c1` (single isomer, unassigned) [Compound 113, N-(1-(6,7-difluoro-4-oxo-3,4-dihydrophthalazin-1-yl)ethyl)-N-methyl-1H-indazole-6-carboxamide] is 2.5-fold higher in EC50: 1000 nM for the first, 2490 nM for the second. The first is the more potent here.

First: CC(c1n[nH]c(=O)c2cc(F)c(F)cc12)N(C)C(=O)c1cc(F)c(C(F)F)c(F)c1 (single isomer, unassigned) [Compound 108, N-(1-(6,7-difluoro-4-oxo-3,4-dihydrophthalazin-1-yl)ethyl)-4-(difluoromethyl)-3,5-difluoro-N-methylbenzamide]
Second: CC(c1n[nH]c(=O)c2cc(F)c(F)cc12)N(C)C(=O)c1cnc(C(F)(F)F)c(Cl)c1 (single isomer, unassigned) [Compound 93, 5-chloro-N-(1-(6,7-difluoro-4-oxo-3,4-dihydrophthalazin-1-yl)ethyl)-N-methyl-6-(trifluoromethyl)nicotinamide]
The EC50 of the first is 6-fold higher: 9950 nM for the first, 1660 nM for the second.

First: CC(c1n[nH]c(=O)c2cc(F)c(F)cc12)N(C)C(=O)c1ccc2ncoc2c1 (single isomer, unassigned) [Compound 90, N-(1-(6,7-difluoro-4-oxo-3,4-dihydrophthalazin-1-yl)ethyl)-N-methylbenzo[d]oxazole-6-carboxamide]
Second: CC(c1n[nH]c(=O)c2cc(F)c(F)cc12)N(C)C(=O)c1ccc2scnc2c1 (single isomer, unassigned) [Compound 85, N-(1-(6,7-difluoro-4-oxo-3,4-dihydrophthalazin-1-yl)ethyl)-N-methylbenzo[d]thiazole-5-carboxamide]
The EC50 of the first is higher: over 25000 nM for the first, 2220 nM for the second.

With `CC(C)CN(C(=O)Nc1ccc(F)c(Cl)c1)C(C)c1n[nH]c(=O)c2ccccc12` (single isomer, unassigned) [Compound 5, 3-(3-chloro-4-fluoro-phenyl)-1-isobutyl-1-[1-(4-oxo-3H-phthalazin-1-yl)ethyl]urea] the EC50 was 10 nM.

Same assay, conditions: Hepatitis B virus, HepDE19, 168 h, HepDE19 cells, 7 day incubation, rcDNA measured by Quantigene 2.0 bDNA assay; top concentration 25 µM; read-out: DE-19bDNA EC50

Compared with `CC(c1n[nH]c(=O)c2cc(F)c(F)cc12)N(C)C(=O)Nc1ccc(F)c(C(F)F)c1` (racemic) [Compound 73, 1-(1-(6,7-difluoro-4-oxo-3,4-dihydrophthalazin-1-yl)ethyl)-3-(3-(difluoromethyl)-4-fluorophenyl)-1-methylurea], `C[C@@H](c1n[nH]c(=O)c2cc(F)c(F)cc12)N(C)C(=O)Nc1ccc(F)c(Cl)c1` [Compound 31, 3-(3-chloro-4-fluorophenyl)-1-(1-(6,7-difluoro-4-oxo-3,4-dihydrophthalazin-1-yl)ethyl)-1-methylurea] is 90-fold higher in EC50: 20 nM for the first, 1800 nM for the second. The first is the more potent here.

Compared with `CC(c1n[nH]c(=O)c2cc(F)c(F)cc12)N(C)C(=O)c1cc2cc(F)c(F)cc2[nH]1` (racemic) [Compound 50, N-(1-(6,7-difluoro-4-oxo-3,4-dihydrophthalazin-1-yl)ethyl)-5,6-difluoro-N-methyl-1H-indole-2-carboxamide], `CC(c1n[nH]c(=O)c2cc(F)c(F)cc12)N(C)C(=O)c1cc2c(F)c(F)ccc2[nH]1` (racemic) [Compound 54, N-(1-(6,7-difluoro-4-oxo-3,4-dihydrophthalazin-1-yl)ethyl)-4,5-difluoro-N-methyl-1H-indole-2-carboxamide] is 1.7-fold lower in EC50: 40 nM for the first, 24 nM for the second.

`Cc1c(C(=O)N(C)C(C)c2n[nH]c(=O)c3cc(F)c(F)cc23)[nH]c2ccccc12` (racemic) [Compound 55, N-(1-(6,7-difluoro-4-oxo-3,4-dihydrophthalazin-1-yl)ethyl)-N,3-dimethyl-1H-indole-2-carboxamide] and `CC(c1n[nH]c(=O)c2cc(F)c(F)cc12)N(C)C(=O)c1ccc(F)c(Cl)c1` (racemic) [Compound 68, 3-chloro-N-(1-(6,7-difluoro-4-oxo-3,4-dihydrophthalazin-1-yl)ethyl)-4-fluoro-N-methylbenzamide] are within 1.5-fold of each other in EC50: 440 nM for the first, 520 nM for the second.

Compared with `CC(c1n[nH]c(=O)c2c(F)cccc12)N(C)C(=O)Nc1ccc(F)c(Cl)c1` (stereo not drawn) [Compound 44, 3-(3-chloro-4-fluorophenyl)-1-(1-(5-fluoro-4-oxo-3,4-dihydrophthalazin-1-yl)ethyl)-1-methylurea], `CC(c1n[nH]c(=O)c2cc(F)ccc12)N(C)C(=O)Nc1ccc(F)c(Cl)c1` (racemic) [Compound 17, 3-(3-chloro-4-fluorophenyl)-1-(1-(6-fluoro-4-oxo-3,4-dihydrophthalazin-1-yl)ethyl)-1-methylurea] is 3.6-fold lower in EC50: 290 nM for the first, 81 nM for the second.

`CC(C)CN(C(=O)Nc1ccc(F)c(Cl)c1)C(C)c1n[nH]c(=O)c2cc(Cl)ccc12` (racemic) [Compound 10, 3-(3-chloro-4-fluorophenyl)-1-(1-(6-chloro-4-oxo-3,4-dihydrophthalazin-1-yl)ethyl)-1-isobutylurea] and `CC(C)CN(C(=O)Nc1ccc(F)cc1)C(C)c1n[nH]c(=O)c2cc(F)ccc12` (racemic) [Compound 16, 1-(1-(6-fluoro-4-oxo-3,4-dihydrophthalazin-1-yl)ethyl)-3-(4-fluorophenyl)-1-isobutylurea] are within 1.5-fold of each other in EC50: 20 nM for the first, 16 nM for the second.

Compared with `CC(c1n[nH]c(=O)c2cc(F)c(F)cc12)N(C)C(=O)c1cc2c(Cl)cccn2c1` (racemic) [Compound 75, 8-chloro-N-(1-(6,7-difluoro-4-oxo-3,4-dihydrophthalazin-1-yl)ethyl)-N-methylindolizine-2-carboxamide], `CC(c1n[nH]c(=O)c2cc(F)c(F)cc12)N(C)C(=O)c1cnc(C(F)(F)F)c(F)c1` (racemic) [Compound 114, N-(1-(6,7-difluoro-4-oxo-3,4-dihydrophthalazin-1-yl)ethyl)-5-fluoro-N-methyl-6-(trifluoromethyl)nicotinamide] is 70-fold higher in EC50: 60 nM for the first, 4180 nM for the second.

Same assay, conditions: Hepatitis B virus, HepDE19, 168 h, read-out: DE-19bDNA EC50

Compared with `CC(c1n[nH]c(=O)c2cc(F)c(F)cc12)N(C)C(=O)c1cc2ccccn2c1` (racemic) [Compound 59, N-(1-(6,7-difluoro-4-oxo-3,4-dihydrophthalazin-1-yl)ethyl)-N-methylindolizine-2-carboxamide], `CC(c1n[nH]c(=O)c2cc(F)c(F)cc12)N(C)C(=O)c1ccccc1` (racemic) [Compound 74, N-(1-(6,7-difluoro-4-oxo-3,4-dihydrophthalazin-1-yl)ethyl)-N-methylbenzamide] is 140-fold higher in EC50: 130 nM for the first, 17700 nM for the second. The first is the more potent here.

Going from `CC(C)CN(C(=O)Nc1ccccc1)C(C)c1nn(C)c(=O)c2cc(F)c(F)cc12` (racemic) [Compound 34, 1-(1-(6,7-difluoro-3-methyl-4-oxo-3,4-dihydrophthalazin-1-yl)ethyl)-1-isobutyl-3-phenylurea] to `CC(C)CN(C(=O)NC1CCCC1)C(C)c1nn(C)c(=O)c2cc(F)c(F)cc12` (racemic) [Compound 35, 3-cyclopentyl-1-(1-(6,7-difluoro-3-methyl-4-oxo-3,4-dihydrophthalazin-1-yl)ethyl)-1-isobutylurea], the EC50 rises from 10 nM to 6900 nM (690-fold).

Going from `C[C@H](c1n[nH]c(=O)c2cc(F)c(F)cc12)N(C)C(=O)Nc1cc(F)c(F)c(F)c1` [Compound 42, (R)(1-(6,7-difluoro-4-oxo-3,4-dihydrophthalazinyl)ethyl)methyl-3-(3,4,5-trifluorophenyl)urea] to `C[C@H](c1n[nH]c(=O)c2cc(F)c(F)cc12)N(C)C(=O)c1cc2c(F)c(F)ccc2[nH]1` [Compound 57, (R)-N-(1-(6,7-difluoro-4-oxo-3,4-dihydrophthalazin-1-yl)ethyl)-4,5-difluoro-N-methyl-1H-indole-2-carboxamide], the EC50 falls from 25 nM to 12 nM (2.1-fold).

Compared with `CC(c1n[nH]c(=O)c2cc(F)c(F)cc12)N(C)C(=O)c1ccc(Cl)cc1` (racemic) [Compound 69, 4-chloro-N-(1-(6,7-difluoro-4-oxo-3,4-dihydrophthalazin-1-yl)ethyl)-N-methylbenzamide], `C[C@H](c1n[nH]c(=O)c2cc(F)c(F)cc12)N(C)C(=O)c1cc2ccccc2[nH]1` [Compound 46, (R)-N-(1-(6,7-difluoro-4-oxo-3,4-dihydrophthalazin-1-yl)ethyl)-N-methyl-1H-indole-2-carboxamide] is 6.2-fold lower in EC50: 200 nM for the first, 32 nM for the second. The second is the more potent here.

`CCN(C(=O)c1cc2cc(F)ccc2[nH]1)C(C)c1n[nH]c(=O)c2cc(F)c(F)cc12` (racemic) [Compound 47, N-(1-(6,7-difluoro-4-oxo-3,4-dihydrophthalazin-1-yl)ethyl)-N-ethyl-5-fluoro-1H-indole-2-carboxamide] gave an EC50 of 41 nM.

Source: patent publication US20230312481A1, “SUBSTITUTED (PHTHALAZIN-1-YLMETHYL)UREAS, SUBSTITUTED N-(PHTHALAZIN-1-YLMETHYL)AMIDES, AND ANALOGUES THEREOF” (priority 2020, published 2023)
